PubChem BioAssay AID248 (DTP/NCI, 2004)
Several values for one entry are separate records, joined by “and”; a condition that tells them apart may be missing. Identical values can stand only once. Inconclusive results and toxic doses are left out. Cut-off read from the data, not from the text of the source: active = T/C of 150% or more; inactive = T/C below 125%.

Tested on: L1210 leukemia ip in BDF1 mice, survival T/C
Experiment: NCI In Vivo Anticancer Drug Screen. Data for tumor model L1210 Leukemia (intraperitoneal) in B6D2F1 (BDF1) mice
Conditions: endpoint: mean survival time, higher = longer survival
In short: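 Ratio derived from survival: compound-dosed mice over vehicle-dosed mice, all bearing a transplantable tumor.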

[1] = dose: 100.0 mg/kg/injection, schedule: Q01DX001 (ip), vehicle: saline
[2] = dose: 200.0 mg/kg/injection, schedule: Q01DX001 (ip), vehicle: saline
[3] = dose: 400.0 mg/kg/injection, schedule: Q01DX001 (ip), vehicle: saline
[4] = dose: 100.0 mg/kg/injection, schedule: Q04DX002 (ip), vehicle: saline with Tween-80
[5] = dose: 200.0 mg/kg/injection, schedule: Q04DX002 (ip), vehicle: saline with Tween-80
[6] = dose: 400.0 mg/kg/injection, schedule: Q04DX002 (ip), vehicle: saline with Tween-80
[7] = dose: 100.0 mg/kg/injection, schedule: Q01DX009 (ip), vehicle: Klucel (hydroxypropylcellulose) (HPC)
[8] = dose: 100.0 mg/kg/injection, schedule: Q04DX003 (ip), vehicle: Klucel (hydroxypropylcellulose) (HPC)
[9] = dose: 200.0 mg/kg/injection, schedule: Q01DX009 (ip), vehicle: Klucel (hydroxypropylcellulose) (HPC)
[10] = dose: 200.0 mg/kg/injection, schedule: Q04DX003 (ip), vehicle: Klucel (hydroxypropylcellulose) (HPC)
[11] = dose: 100.0 mg/kg/injection, schedule: Q04DX003 (ip), vehicle: saline with Tween-80
[12] = dose: 200.0 mg/kg/injection, schedule: Q04DX003 (ip), vehicle: saline with Tween-80
[13] = dose: 400.0 mg/kg/injection, schedule: Q04DX003 (ip), vehicle: saline with Tween-80
[14] = dose: 400.0 mg/kg/injection, schedule: Q04DX003 (ip), vehicle: Klucel (hydroxypropylcellulose) (HPC)
[15] = dose: 50.0 mg/kg/injection, schedule: Q04DX003 (ip), vehicle: Klucel (hydroxypropylcellulose) (HPC)

Measured: T/C

CCOC(=O)NCc1cccc2ccc(Cl)cc12
inactive: dose: 100.0 mg/kg/injection, schedule: Q01DX001 (ip), vehicle: Klucel (hydroxypropylcellulose) (HPC) 95 % of control | dose: 200.0 mg/kg/injection, schedule: Q01DX001 (ip), vehicle: Klucel (hydroxypropylcellulose) (HPC) 90 % of control | dose: 400.0 mg/kg/injection, schedule: Q01DX001 (ip), vehicle: Klucel (hydroxypropylcellulose) (HPC) 86 % of control

CCSC(SCC)C(NC(C)=O)C1OC(C)(C)OC1C(O)CO (configuration not stated)
inactive: dose: 50.0 mg/kg/injection, schedule: Q01DX001 (ip), vehicle: saline 97 % of control | [1] 103 % of control | [2] 103 % of control | [3] 103 % of control

CCOC(=O)Cc1c(C)c2c(O)cc(O)cc2oc1=O
inactive: dose: 100.0 mg/kg/injection, schedule: Q01DX001 (ip), vehicle: carboxymethylcellulose (CMC) 97 % of control | dose: 200.0 mg/kg/injection, schedule: Q01DX001 (ip), vehicle: carboxymethylcellulose (CMC) 89 % of control | dose: 400.0 mg/kg/injection, schedule: Q01DX001 (ip), vehicle: carboxymethylcellulose (CMC) 97 % of control

CCC1=NS(=O)(=O)c2c(ncn2C)N1
inactive: dose: 100.0 mg/kg/injection, schedule: Q04DX003 (ip), vehicle: other 97 % of control | dose: 200.0 mg/kg/injection, schedule: Q04DX003 (ip), vehicle: other 97 % of control | dose: 400.0 mg/kg/injection, schedule: Q04DX003 (ip), vehicle: other 103 % of control

CCC1(C)n2c(=O)c3ccccc3c(=O)n21
inactive: [4] 97 % of control | [5] 101 % of control | [6] 90 % of control

CCc1csc(=S)[nH]1
inactive: dose: 50.0 mg/kg/injection, schedule: Q01DX009 (ip), vehicle: Klucel (hydroxypropylcellulose) (HPC) 98 % of control | [7] 93 % of control | [8] 98 % of control | [9] 96 % of control | [10] 98 % of control

O=C(C(Sc1ccccc1)=P(c1ccccc1)(c1ccccc1)c1ccccc1)c1ccccc1
inactive: [11] 90 % of control | [12] 90 % of control

CN(C)CC(=O)c1ccc(Cl)cc1
inactive: dose: 50.0 mg/kg/injection, schedule: Q01DX009 (ip), vehicle: saline 87 % of control | dose: 100.0 mg/kg/injection, schedule: Q01DX009 (ip), vehicle: saline 102 % of control

O=C(CCCl)Oc1ccc(Cl)cc1
inactive: [11] 92 % of control | [12] 93 % of control | [13] 100 % of control

CCCCCCCCCCCCNC(=O)c1ccccc1O
inactive: dose: 50.0 mg/kg/injection, schedule: Q01DX009 (ip), vehicle: other 96 % of control | dose: 100.0 mg/kg/injection, schedule: Q01DX009 (ip), vehicle: other 91 % of control | dose: 400.0 mg/kg/injection, schedule: Q01DX009 (ip), vehicle: other 101 % of control

CCOc1ccc(C2(C)CC(=O)NN2)c(O)c1 (configuration not stated)
inactive: dose: 100.0 mg/kg/injection, schedule: Q01DX001 (ip), vehicle: saline with Tween-80 101 % of control | dose: 200.0 mg/kg/injection, schedule: Q01DX001 (ip), vehicle: saline with Tween-80 103 % of control | dose: 400.0 mg/kg/injection, schedule: Q01DX001 (ip), vehicle: saline with Tween-80 98 % of control

Cc1ccc(S(=O)(=O)Nc2ncc([N+](=O)[O-])s2)cc1
inactive: dose: 12.5 mg/kg/injection, schedule: Q01DX009 (ip), vehicle: saline with Tween-80 101 % of control | dose: 25.0 mg/kg/injection, schedule: Q01DX009 (ip), vehicle: saline with Tween-80 101 % of control | dose: 50.0 mg/kg/injection, schedule: Q01DX009 (ip), vehicle: saline with Tween-80 98 % of control and 90 % of control

Nc1cc2c3ccccc3ncc2c2ccccc12
inactive: dose: 100.0 mg/kg/injection, schedule: Q01DX009 (ip), vehicle: saline with Tween-80 106 % of control | [11] 104 % of control | dose: 200.0 mg/kg/injection, schedule: Q01DX009 (ip), vehicle: saline with Tween-80 108 % of control | [12] 94 % of control | dose: 400.0 mg/kg/injection, schedule: Q01DX009 (ip), vehicle: saline with Tween-80 108 % of control | [13] 105 % of control

CC(C)N1CCC(=O)NC1=O
inactive: [8] 94 % of control | dose: 100.0 mg/kg/injection, schedule: Q04DX003 (ip), vehicle: saline 94 % of control | [10] 94 % of control | dose: 200.0 mg/kg/injection, schedule: Q04DX003 (ip), vehicle: saline 92 % of control | [14] 91 % of control | dose: 400.0 mg/kg/injection, schedule: Q04DX003 (ip), vehicle: saline 103 % of control

O=C(c1ccncc1)n1cc2c(n1)CCCC2
inactive: [8] 87 % of control | [10] 92 % of control | [14] 95 % of control

COC(=O)CCC(=O)c1cc(OC)c2cc3ccccc3cc2c1OC
inactive: dose: 100.0 mg/kg/injection, schedule: Q01DX001 (ip), vehicle: other 96 % of control | dose: 200.0 mg/kg/injection, schedule: Q01DX001 (ip), vehicle: other 96 % of control | dose: 400.0 mg/kg/injection, schedule: Q01DX001 (ip), vehicle: other 100 % of control

CNC(=O)C1NCCc2cc(OC)c(OC)cc21 (configuration not stated)
inactive: [1] 97 % of control | [2] 95 % of control | [3] 91 % of control

CS(=O)c1cc2c(cc1[N+](=O)[O-])C(=O)c1ccccc1-2 (configuration not stated)
inactive: dose: 20.0 mg/kg/injection, schedule: Q01DX009 (ip), vehicle: Klucel (hydroxypropylcellulose) (HPC) 107 % of control | dose: 40.0 mg/kg/injection, schedule: Q01DX009 (ip), vehicle: Klucel (hydroxypropylcellulose) (HPC) 117 % of control | [15] 97 % of control | [7] 95 % of control | [8] 93 % of control

COc1ccc(/C=N/NC(=S)Nc2ccccc2)cc1
inactive: [7] 103 % of control | [9] 95 % of control | dose: 400.0 mg/kg/injection, schedule: Q01DX009 (ip), vehicle: Klucel (hydroxypropylcellulose) (HPC) 108 % of control

c1cc[c]([Sb]([c]2ccccc2)[n]2ccnc2)cc1
inactive: dose: 5.0 mg/kg/injection, schedule: Q04DX002 (ip), vehicle: saline with Tween-80 97 % of control | dose: 10.0 mg/kg/injection, schedule: Q04DX002 (ip), vehicle: saline with Tween-80 97 % of control

C/C(CCC(=O)O)=N/N=C(N)N
inactive: dose: 15.0 mg/kg/injection, schedule: Q01DX Z (ip), vehicle: carboxymethylcellulose (CMC) 100 % of control | dose: 30.0 mg/kg/injection, schedule: Q01DX Z (ip), vehicle: carboxymethylcellulose (CMC) 106 % of control | dose: 60.0 mg/kg/injection, schedule: Q01DX Z (ip), vehicle: carboxymethylcellulose (CMC) 106 % of control | dose: 120.0 mg/kg/injection, schedule: Q01DX Z (ip), vehicle: carboxymethylcellulose (CMC) 95 % of control and 102 % of control | dose: 240.0 mg/kg/injection, schedule: Q01DX Z (ip), vehicle: carboxymethylcellulose (CMC) 108 % of control | dose: 480.0 mg/kg/injection, schedule: Q01DX Z (ip), vehicle: carboxymethylcellulose (CMC) 104 % of control

COc1ccc(OC)c(NC(=O)c2c(Br)c(Br)c(Br)c(Br)c2C(=O)O)c1
inactive: [7] 109 % of control | [9] 97 % of control

C=CCN(CCN(CC)CC)C(=O)C(O)(c1ccccc1)c1ccccc1
inactive: [4] 93 % of control | [5] 93 % of control | [6] 95 % of control

CCCCn1cnc(=S)c2[nH]cnc21
inactive: [15] 98 % of control | [8] 114 % of control | dose: 133.0 mg/kg/injection, schedule: Q04DX003 (ip), vehicle: Klucel (hydroxypropylcellulose) (HPC) 118 % of control
